According to the supplement of paper PMC4862054:

What was measured:
SK-BR-3 [1] = settings: 72 h
Outline: (§1)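 To measure viability, fluorescence at 560/590 nm was read after 2.5 µl CellTiter-Blue had been added for 2 h at 37 °C. Cells from breast cancer lines had been seeded in 20 µl suspension onto 384-well plates pre-loaded with compound dissolved in 5 µl medium and kept for 72 h. EC50 comes from a fitted percent-inhibition dose-response curve censored at the highest concentration, after per-plate normalisation to vehicle and a positive kill control, Z'-factor checks, and removal of rows with zero drug sensitivity score.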

MDA-MB-436 [2] = settings: 72 h
Outline: as §1

HCC1937 [3] = settings: 72 h
Outline: as §1

MDA-MB-231 [4] = settings: 72 h
Outline: as §1

BT-474 [5] = settings: 72 h
Outline: as §1

CAL-120 [6] = settings: 72 h
Outline: as §1

MDA-MB-468 [7] = settings: 72 h
Outline: as §1

Hs578T [8] = settings: 72 h
Outline: as §1

MFM-223 [9] = settings: 72 h
Outline: as §1

BT-549 [10] = settings: 72 h
Outline: as §1

HCC1599 [11] = test: drug sensitivity score (DSS), CellTox Green (DSS (AUC-based score)); higher = stronger drug effect (viability inhibition or cytotoxicity); extreme values may be limits of the assay; settings: incubation time: 72 h
Outline: (§2)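 Normalisation on every plate relied on 0.1 % DMSO and a positive kill control. The plates, 384-well format, held compound at 5 concentrations 10-fold apart across a compound-specific 10,000-fold range, and breast cancer cell lines in 20 µl suspension were incubated on them for 72 h before CellTox Green and then CellTiter-Glo readings. The drug sensitivity score derives from the area under the fitted dose-response curve.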

CAL-120 [12] = test: as above; settings: incubation time: 72 h
Outline: as §2

MDA-MB-468 [13] = test: as above; settings: incubation time: 72 h
Outline: as §2

CAL-85-1 [14] = settings: 72 h
Outline: (§3)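 For viability and cell death testing, 384-well plates carried compound at 5 concentrations in 10-fold steps over a compound-specific 10,000-fold range, and breast cancer cell lines were seeded in 20 µl suspension. After 72 h incubation, cell death was read by CellTox Green fluorescence (485/520 nm) before viability was read by CellTiter-Glo luminescence. EC50 was fitted from the dose-response curves and censored at the top concentration. Normalisation on each plate was to 0.1 % DMSO and a positive kill control.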

SK-BR-3 [15] = settings: 72 h; remark: listed apart in the source
Outline: as §3

HDQ-P1 [16] = settings: 72 h
Outline: as §3

MDA-MB-436 [17] = settings: 72 h; remark: listed apart in the source
Outline: as §3

DU-4475 [18] = settings: 72 h
Outline: as §3

HCC1143 = settings: 72 h
Outline: as §3

HCC1599 [19] = settings: 72 h
Outline: as §3

HCC1937 [20] = settings: 72 h; remark: listed apart in the source
Outline: as §3

CAL-51 [21] = settings: 72 h
Outline: as §3

MDA-MB-231 [22] = settings: 72 h; remark: listed apart in the source
Outline: as §3

BT-474 [23] = settings: 72 h; remark: listed apart in the source
Outline: as §3

MDA-MB-453 [24] = settings: 72 h
Outline: as §3

CAL-120 [25] = settings: 72 h; remark: listed apart in the source
Outline: as §3

Hs578T [26] = settings: 72 h; remark: listed apart in the source
Outline: as §3

MFM-223 [27] = settings: 72 h; remark: listed apart in the source
Outline: as §3

BT-549 [28] = settings: 72 h; remark: listed apart in the source
Outline: as §3

CAL-85-1 [29] = settings: 72 h; remark: listed apart in the source
Outline: as §1

HDQ-P1 [30] = settings: 72 h; remark: listed apart in the source
Outline: as §1

DU-4475 [31] = settings: 72 h; remark: listed apart in the source
Outline: as §1

CAL-51 [32] = settings: 72 h; remark: listed apart in the source
Outline: as §1

MDA-MB-453 [33] = settings: 72 h; remark: listed apart in the source
Outline: as §1

MCF-10A = settings: 72 h
Outline: as §3

CAL-148 = settings: 72 h
Outline: as §3

| SMILES | EC50, CellTiter-Blue viability (SK-BR-3 [1]) [nM] | EC50, CellTiter-Blue viability (MDA-MB-436 [2]) [nM] | EC50, CellTiter-Blue viability (HCC1937 [3]) [nM] | EC50, CellTiter-Blue viability (MDA-MB-231 [4]) [nM] | EC50, CellTiter-Blue viability (BT-474 [5]) [nM] | EC50, CellTiter-Blue viability (CAL-120 [6]) [nM] | EC50, CellTiter-Blue viability (MDA-MB-468 [7]) [nM] | EC50, CellTiter-Blue viability (Hs578T [8]) [nM] | EC50, CellTiter-Blue viability (MFM-223 [9]) [nM] | EC50, CellTiter-Blue viability (BT-549 [10]) [nM] | drug sensitivity score (HCC1599 [11]) | drug sensitivity score (CAL-120 [12]) | drug sensitivity score (MDA-MB-468 [13]) | EC50, CellTiter-Glo (CAL-85-1 [14]) [nM] | EC50, CellTiter-Glo (SK-BR-3 [15]) [nM] | EC50, CellTiter-Glo (HDQ-P1 [16]) [nM] | EC50, CellTiter-Glo (MDA-MB-436 [17]) [nM] | EC50, CellTiter-Glo (DU-4475 [18]) [nM] | EC50, CellTiter-Glo (HCC1143) [nM] | EC50, CellTiter-Glo (HCC1599 [19]) [nM] | EC50, CellTiter-Glo (HCC1937 [20]) [nM] | EC50, CellTiter-Glo (CAL-51 [21]) [nM] | EC50, CellTiter-Glo (MDA-MB-231 [22]) [nM] | EC50, CellTiter-Glo (BT-474 [23]) [nM] | EC50, CellTiter-Glo (MDA-MB-453 [24]) [nM] | EC50, CellTiter-Glo (CAL-120 [25]) [nM] | EC50, CellTiter-Glo (Hs578T [26]) [nM] | EC50, CellTiter-Glo (MFM-223 [27]) [nM] | EC50, CellTiter-Glo (BT-549 [28]) [nM] | EC50, CellTiter-Blue viability (CAL-85-1 [29]) [nM] | EC50, CellTiter-Blue viability (HDQ-P1 [30]) [nM] | EC50, CellTiter-Blue viability (DU-4475 [31]) [nM] | EC50, CellTiter-Blue viability (CAL-51 [32]) [nM] | EC50, CellTiter-Blue viability (MDA-MB-453 [33]) [nM] | EC50, CellTiter-Glo (MCF-10A) [nM] | EC50, CellTiter-Glo (CAL-148) [nM] |
| --- | --- | --- | --- | --- | --- | --- | --- | --- | --- | --- | --- | --- | --- | --- | --- | --- | --- | --- | --- | --- | --- | --- | --- | --- | --- | --- | --- | --- | --- | --- | --- | --- | --- | --- | --- | --- |
| O=C(Nc1ccncc1)C(=O)c1cn(Cc2ccc(Cl)cc2)c2ccccc12 [Indibulin] | 26.1 | 64.5 | 18.1 | 87.2 | 31.3 | 22.4 | 61.8 | 938 | 377 | 135 | 0 | 0.995 | 3.09 | 169 | 355 | 523 | 203 | 3810 | 754 | 129 | 245 | 165 | 1040 | 282 | 164 | 408 | 482 | 280 | 185 | 201 | 72.5 | 1530 | 631 | 36.1 |  |  |
| Cc1cc(Nc2cc(CN3CCOCC3)c3nc(C)c(Cc4ccc(Cl)cc4F)n3n2)n[nH]1 | 3180 | 1080 | 3820 | 1750 | 2920 | 877 | 1150 | 2080 | 83.5 | 2370 |  |  |  |  |  |  |  |  |  |  |  |  |  |  |  |  |  |  |  | 2650 | 930 | 2130 | 2150 | 851 |  |  |
| COc1cc2/c(=N/c3ccc(Br)cc3F)nc[nH]c2cc1OCC1CCN(C)CC1 [Vandetanib] | 4330 | 138 |  | 2480 | 2290 | 5260 | 3330 | 2060 | 926 | 3750 | 0 | 0 | 0 |  |  |  | > 1000 |  |  |  |  | > 1000 |  | 110 |  | > 1000 |  | 370 |  | 2590 | 191 |  | 2900 | 4640 | 150 |  |
| CC(C)C[C@@H](C(=O)N[C@H](C(=O)OC1CCCC1)c1ccccc1)[C@H](O)C(=O)NO [Tosedostat] |  | 2740 | 121 | 92.4 |  | 16.7 | 35.9 | 2140 | 2230 | 273 | 0 | 13.6 | 20.1 | 182 |  | 630 | 335 |  | 405 |  | 81.3 | 854 | 366 | 93.2 | 55.8 | 127 | 8270 | 528 | 125 | 2940 | 268 | 126 | 6030 | 86.3 |  | 327 |
